The compounds below were run against T1, NK1-receptor (substance P-receptor) (Homo sapiens, UniProt P25103) (assay: NK1-receptor affinity, displacement of 125I-labelled substance P on IM-9 cells). Details: human lymphoblastoma cells (IM-9) with cloned NK1-receptors.
T1 construct: expressed in transfected cells; host or cells: IM-9 human lymphoblastoma cells
Format: binding
Method: The receptor affinity to the NK1-receptor (substance P-receptor) is determined on human lymphoblastoma cells (IM-9) with cloned NK1-receptors, by measuring the displacement of ^125I-labelled substance P. The Ki-values thus obtained show the efficacy of the compounds.

T1 sequence (P25103 whole entry): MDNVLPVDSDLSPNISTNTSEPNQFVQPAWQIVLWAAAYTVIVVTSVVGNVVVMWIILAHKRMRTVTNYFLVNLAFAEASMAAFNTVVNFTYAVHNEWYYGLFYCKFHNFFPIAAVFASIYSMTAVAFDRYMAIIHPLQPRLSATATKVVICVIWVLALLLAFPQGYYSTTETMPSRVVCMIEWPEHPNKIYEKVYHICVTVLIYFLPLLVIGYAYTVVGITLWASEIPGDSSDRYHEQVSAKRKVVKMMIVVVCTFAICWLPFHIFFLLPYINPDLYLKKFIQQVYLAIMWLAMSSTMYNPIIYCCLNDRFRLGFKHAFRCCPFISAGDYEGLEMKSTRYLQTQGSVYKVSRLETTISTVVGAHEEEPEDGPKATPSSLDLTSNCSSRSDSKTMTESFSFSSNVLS

Row | Ki [nM] | Compound
1 | 1.7 | CN(CCc1cc(C(F)(F)F)cc(C(F)(F)F)c1)C(=O)[C@H](c1ccccc1)N1CCC(N2CCCOC2=O)CC1 [Example 2, (S)-N-[2-(3,5-bis-trifluoromethyl-phenyl)-ethyl]-N-methyl-2-[4-(2-oxo-[1.3]oxazinan-3-yl)-piperidin-1-yl]-2-phenyl-acetamide]
2 | 0.7 | CN(CCc1cc(C(F)(F)F)cc(C(F)(F)F)c1)C(=O)[C@H](c1ccccc1)N1CCC(N2C(=O)COC2=O)CC1 [Example 3]
3 | 0.6 | CN(CCc1cc(C(F)(F)F)cc(C(F)(F)F)c1)C(=O)[C@H](c1ccccc1)N1CCC(N2CCC(=O)N(C)C2=O)CC1 [Example 4]
4 | 0.6 | CC1CC(=O)N(C)C(=O)N1C1CCN([C@H](C(=O)N(C)CCc2cc(C(F)(F)F)cc(C(F)(F)F)c2)c2ccccc2)CC1 (stereo partly drawn) [Example 5]
5 | 3.5 | CN(CCc1cc(C(F)(F)F)cc(C(F)(F)F)c1)C(=O)[C@H](c1ccccc1)N1CCC(N2CCNC2=O)CC1 [Example 6]

Further lines, the compound ahead of its results:

Row | Compound | Ki [nM]
6 | CNC(=O)NC1CCN(C(C(=O)N(C)CCc2cc(C(F)(F)F)cc(C(F)(F)F)c2)c2ccccc2)CC1 (stereo not drawn) [Example 1, N-[2-(3,5-bis-trifluoromethyl-phenyl)-ethyl]-N-methyl-2-[4-(3-methyl-ureido)-piperidin-1-yl]-2-phenyl-acetamide] | 0.7
7 | CN(CCc1cc(C(F)(F)F)cc(C(F)(F)F)c1)C(=O)[C@H](c1ccccc1)N1CCC(NC(=O)Nc2ccccc2)CC1 [Example 7] | 0.8
8 | CC(=O)N1CCN(C2CCN(C(C(=O)NCc3cc(C(F)(F)F)cc(C(F)(F)F)c3)c3ccccc3)CC2)C1=O (stereo not drawn) [Example B-6, reference compound] | 165
9 | O=C(Nc1ccccc1)NC1CCN(C(C(=O)NCc2cc(C(F)(F)F)cc(C(F)(F)F)c2)c2ccccc2)CC1 (stereo not drawn) [Example B-7, reference compound] | 432

Reference: patent US6664253B2, “Neurokinin antagonists” (Boehringer Ingelheim Pharma KG, priority 2000, dated 2003)
